Experiment [1] concerns the target T1, human AXL (473-end) (Homo sapiens, UniProt P30530).
T1 construct: human AXL (473-end); purchased SignalChem, Canada
T1 sequence (P30530 473-894 limits assumed): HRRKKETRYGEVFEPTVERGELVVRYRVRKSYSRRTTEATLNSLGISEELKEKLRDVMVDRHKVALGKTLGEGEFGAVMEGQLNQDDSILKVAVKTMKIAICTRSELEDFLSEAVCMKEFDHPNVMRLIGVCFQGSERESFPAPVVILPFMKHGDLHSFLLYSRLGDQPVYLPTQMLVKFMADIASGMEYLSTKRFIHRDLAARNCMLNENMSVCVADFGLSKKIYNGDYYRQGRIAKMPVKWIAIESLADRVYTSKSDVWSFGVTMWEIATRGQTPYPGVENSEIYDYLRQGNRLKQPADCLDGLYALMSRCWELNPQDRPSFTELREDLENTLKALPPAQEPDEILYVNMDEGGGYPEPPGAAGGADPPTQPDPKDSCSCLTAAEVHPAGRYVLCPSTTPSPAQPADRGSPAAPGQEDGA
Kind of experiment: HTRF kinase activity biochemical assay, AXL. Particulars: 10 μM ATP, 30 minutes pre-incubation. As for the experimental part: (§1) For the SAR (structure-activity relationship) and compound screening, HTRF (Homogeneous Time Resolved Fluorescence) kinase activity assay was employed for all MER, AXL and TYRO3 kinases using Cisbio HTRF® KinEASE™-TK kit (Cisbio, USA). The kit included biotin-labeled TK substrate, streptavidin-XL665, Eu3+-cryptate-labeled TK antibody and HTRF® Detection buffer. There are two main steps in the kinase assay: kinase reaction and detection of phosphorylated substrate. The reaction was carried out in white low volume 384-well plate (Corning, USA) with 25 nL compound in dimethyl sulfoxide in each well. […] After 1 hour incubation at room temperature, the fluorescence intensity was measured with Envision[…] plate reader (PerkinElmer, USA). Upon excitation at 340 nm by UV, the energy from Eu3+ donor of the antibody is transferred to the FRET acceptor XL665, and […] emits light at 665 nm.
On the technique in general: TR-FRET usually uses a lanthanide donor and a delayed reading to cut background.

In experiment [2] the target is T2, human TYRO3 (455-end) (Homo sapiens, UniProt Q06418).
T2 construct: TYRO3 (455-end); purchased SignalChem, Canada
T2 sequence (Q06418 455-890 limits assumed): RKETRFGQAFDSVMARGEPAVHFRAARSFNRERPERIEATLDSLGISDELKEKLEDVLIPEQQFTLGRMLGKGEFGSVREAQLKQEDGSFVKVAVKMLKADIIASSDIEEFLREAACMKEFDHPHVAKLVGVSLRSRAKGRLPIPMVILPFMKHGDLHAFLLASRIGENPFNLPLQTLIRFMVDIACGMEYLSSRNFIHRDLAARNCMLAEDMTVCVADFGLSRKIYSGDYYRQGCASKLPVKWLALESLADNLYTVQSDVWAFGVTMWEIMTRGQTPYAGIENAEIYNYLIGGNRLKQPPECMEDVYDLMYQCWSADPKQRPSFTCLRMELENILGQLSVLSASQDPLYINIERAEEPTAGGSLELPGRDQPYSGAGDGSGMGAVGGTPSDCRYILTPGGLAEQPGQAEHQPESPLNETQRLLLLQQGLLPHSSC
Description: HTRF kinase activity biochemical assay, TYRO3. Particulars: 10 μM ATP, 30 minutes pre-incubation; read-out: HTRF TYRO IC50. As for the experimental part:
as §1

Experiment [3] concerns the target T3, human MER (528-end) (Homo sapiens, UniProt Q12866).
T3 construct: human MER (528-end); purchased Camnabio, Japan
T3 sequence (Q12866 528-999 limits assumed): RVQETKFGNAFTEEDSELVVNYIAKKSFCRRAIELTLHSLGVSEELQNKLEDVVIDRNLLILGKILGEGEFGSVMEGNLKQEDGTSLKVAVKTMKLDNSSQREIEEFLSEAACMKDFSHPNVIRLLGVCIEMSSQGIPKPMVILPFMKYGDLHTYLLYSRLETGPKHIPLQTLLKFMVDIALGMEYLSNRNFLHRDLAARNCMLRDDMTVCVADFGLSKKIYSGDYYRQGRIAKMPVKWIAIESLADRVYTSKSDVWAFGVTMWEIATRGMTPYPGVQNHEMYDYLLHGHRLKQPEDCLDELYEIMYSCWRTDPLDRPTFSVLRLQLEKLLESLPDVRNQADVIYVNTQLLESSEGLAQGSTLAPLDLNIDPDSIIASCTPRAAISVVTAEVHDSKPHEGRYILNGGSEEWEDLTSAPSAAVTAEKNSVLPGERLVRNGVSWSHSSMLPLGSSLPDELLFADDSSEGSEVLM
Description: HTRF kinase activity biochemical assay, MER. Particulars: 10 μM ATP, 30 minutes pre-incubation; read-out: HTRF MERTK IC50. The procedure:
as §1

In general, IC50 refers to the concentration needed to halve the response being measured.

On to `CCCC1(C)CN(C2CCN(CCO)CC2)c2ccc(-c3ccc(CO[C@H]4CCC[C@@H]4NC(=O)c4cc(-c5cnn(C)c5)cnc4N)cc3)cc21` (mixture of isomers) [Example 39, 2-amino-N-{(1S,2S)-2-[(4-{1-[1-(2-hydroxyethyl)piperidin-4-yl]-3-methyl-3-propyl-2,3-dihydro-1H-indol-5-yl}phenyl)methoxy]cyclopentyl}-5-(1-methyl-1H-pyrazol-4-yl)pyridine-3-carboxamide], for which the IC50 in experiment [1], in experiment [2] and in experiment [3] was under 10 nM throughout.

With `CCC1(C)CN(C2CCN(CCO)CC2)c2ccc(-c3ccc(CO[C@H]4CCC[C@@H]4NC(=O)c4cc(-c5cnn(C)c5)cnc4N)cc3)cc21` (mixture of isomers) [Example 40, 2-amino-N-{(1S,2S)-2-[(4-{3-ethyl-1-[1-(2-hydroxyethyl)piperidin-4-yl]-3-methyl-2,3-dihydro-1H-indol-5-yl}phenyl)methoxy]cyclopentyl}-5-(1-methyl-1H-pyrazol-4-yl)pyridine-3-carboxamide], the IC50 in experiment [1], in experiment [2] and in experiment [3] was under 10 nM each time.

As to `Cn1cc(-c2cnc(N)c(C(=O)N[C@H]3CCC[C@@H]3OCc3ccc(-c4ccc5c(c4)CC(F)(F)C5N4CCN(CC(O)CO)CC4)cc3)c2)cn1` (mixture of isomers) [Example 59, 2-amino-N-{(1S,2S)-2-[(4-{1-[4-(2,3-dihydroxypropyl)piperazin-1-yl]-2,2-difluoro-2,3-dihydro-1H-inden-5-yl}phenyl)methoxy]cyclopentyl}-5-(1-methyl-1H-pyrazol-4-yl)pyridine-3-carboxamide], the IC50 in experiment [1] was under 10 nM; in experiment [2], 100 to 1000 nM; in experiment [3], under 10 nM.

With `Cn1cc(-c2cnc(N)c(C(=O)N[C@H]3C[C@H](O)C[C@@H]3OCc3ccc(-c4ccc5c(c4)C(C)(C)CN5C4CCN(CCO)CC4)cc3)c2)cn1` (relative stereo) [Example 38, rel-2-amino-N-{(1S,2S,4S)-4-hydroxy-2-[(4-{1-[1-(2-hydroxyethyl)piperidin-4-yl]-3,3-dimethyl-2,3-dihydro-1H-indol-5-yl}phenyl)methoxy]cyclopentyl}-5-(1-methyl-1H-pyrazol-4-yl)pyridine-3-carboxamide], the values for the IC50 in experiment [1], in experiment [2] and in experiment [3] were under 10 nM, 10 to 100 nM and under 10 nM, respectively.

Take `Cn1cc(-c2cnc(N)c(C(=O)N[C@H]3CCC[C@@H]3OCc3ccc(-c4ccc5c(c4)C[C@H](F)[C@@H]5N4CCN(CCO)CC4)cc3)c2)cn1` (relative stereo) [Example 85, 2-amino-N-{(1S,2S)-2-[(4-{(1R*,2S*)-2-fluoro-1-[4-(2-hydroxyethyl)piperazin-1-yl]-2,3-dihydro-1H-inden-5-yl}phenyl)methoxy]cyclopentyl}-5-(1-methyl-1H-pyrazol-4-yl)pyridine-3-carboxamide]: the IC50 is under 10 nM in experiment [1], 100 to 1000 nM in experiment [2] and under 10 nM in experiment [3].

Take `Nc1ncc(-c2ccc(F)nc2)cc1C(=O)N[C@H]1CCC[C@@H]1OCc1ccc(-c2ccc3c(c2)C[C@H](F)[C@@H]3N2CCN(CCO)CC2)cc1` (relative stereo) [Example 89, 6-amino-6′-fluoro-N-{(1S,2S)-2-[(4-{(1R*,2S*)-2-fluoro-1-[4-(2-hydroxyethyl)piperazin-1-yl]-2,3-dihydro-1H-inden-5-yl}phenyl)methoxy]cyclopentyl}[3,3′-bipyridine]-5-carboxamide]: the IC50 in experiment [1] was under 10 nM; in experiment [2] it was over 1000 nM; in experiment [3] it was under 10 nM.

These data come from patent publication US20260146035A1, “FUSED BICYCLIC COMPOUNDS AND THEIR USE AS MER AND AXL INHIBITORS” (DONG-A ST CO., LTD., priority 2022, published 2026).
